From patent US8791131B2, “Imidazo[1,5]naphthyridine compounds, their pharmaceutical use and compositions” (Pfizer Inc., priority 2008, dated 2014)
Where two headings read alike, the source gives them in different places.

What was measured:
PI3-Kα = PI3-Kα (Mus musculus (Mouse), UniProt P42337); assay: PI3-Kα biochemical assay (in vitro kinase assay, fluorescence polarization); conditions: for PI3Ka Ki: Ki calculated from IC50, [ATP]=30 uM, Km=25 uM;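 for all read-outs here: Insect-cell-expressed mouse p110/p85 complex converting PI(4,5)P2, product PI(3,4,5)P3 detected by displacing TAMRA-tagged PI(3,4,5)P3 from Grip1 PH domain, lower polarization means more product, room temperature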
mTOR [1] = molecular target: T1, mTOR (Homo sapiens (Human), UniProt P42345); assay: biochemical
mTOR [2] = molecular target: T1, mTOR
[3] = system: PI3-K (phosphorylation of AKT at serine 473) in BT20 cells; assay: PI3-Kα cellular assay (phospho-AKT Ser473 ELISA in BT20 cells); conditions: Homo sapiens, BT-20, 1 h, read-out: S473 pAKT 10% FBS IC50 (μM);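 note: lysates read by ELISA with TMB colour at 450 nm, cells given 0.5% DMSO vehicle serve as positive control and cell-free wells as negative control, duplicate wells per concentration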

T1 sequence (P42345 2156-2469): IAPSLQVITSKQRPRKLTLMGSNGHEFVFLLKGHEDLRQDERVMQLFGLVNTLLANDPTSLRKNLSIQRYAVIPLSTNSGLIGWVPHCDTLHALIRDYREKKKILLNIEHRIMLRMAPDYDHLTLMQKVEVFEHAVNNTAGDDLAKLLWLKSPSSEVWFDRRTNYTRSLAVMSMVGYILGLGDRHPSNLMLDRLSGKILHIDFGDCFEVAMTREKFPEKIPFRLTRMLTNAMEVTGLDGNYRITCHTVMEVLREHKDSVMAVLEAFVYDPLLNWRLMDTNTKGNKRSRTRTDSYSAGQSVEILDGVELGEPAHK
PI3-Kα, sequence (P42337 whole entry, the tested form may be a part): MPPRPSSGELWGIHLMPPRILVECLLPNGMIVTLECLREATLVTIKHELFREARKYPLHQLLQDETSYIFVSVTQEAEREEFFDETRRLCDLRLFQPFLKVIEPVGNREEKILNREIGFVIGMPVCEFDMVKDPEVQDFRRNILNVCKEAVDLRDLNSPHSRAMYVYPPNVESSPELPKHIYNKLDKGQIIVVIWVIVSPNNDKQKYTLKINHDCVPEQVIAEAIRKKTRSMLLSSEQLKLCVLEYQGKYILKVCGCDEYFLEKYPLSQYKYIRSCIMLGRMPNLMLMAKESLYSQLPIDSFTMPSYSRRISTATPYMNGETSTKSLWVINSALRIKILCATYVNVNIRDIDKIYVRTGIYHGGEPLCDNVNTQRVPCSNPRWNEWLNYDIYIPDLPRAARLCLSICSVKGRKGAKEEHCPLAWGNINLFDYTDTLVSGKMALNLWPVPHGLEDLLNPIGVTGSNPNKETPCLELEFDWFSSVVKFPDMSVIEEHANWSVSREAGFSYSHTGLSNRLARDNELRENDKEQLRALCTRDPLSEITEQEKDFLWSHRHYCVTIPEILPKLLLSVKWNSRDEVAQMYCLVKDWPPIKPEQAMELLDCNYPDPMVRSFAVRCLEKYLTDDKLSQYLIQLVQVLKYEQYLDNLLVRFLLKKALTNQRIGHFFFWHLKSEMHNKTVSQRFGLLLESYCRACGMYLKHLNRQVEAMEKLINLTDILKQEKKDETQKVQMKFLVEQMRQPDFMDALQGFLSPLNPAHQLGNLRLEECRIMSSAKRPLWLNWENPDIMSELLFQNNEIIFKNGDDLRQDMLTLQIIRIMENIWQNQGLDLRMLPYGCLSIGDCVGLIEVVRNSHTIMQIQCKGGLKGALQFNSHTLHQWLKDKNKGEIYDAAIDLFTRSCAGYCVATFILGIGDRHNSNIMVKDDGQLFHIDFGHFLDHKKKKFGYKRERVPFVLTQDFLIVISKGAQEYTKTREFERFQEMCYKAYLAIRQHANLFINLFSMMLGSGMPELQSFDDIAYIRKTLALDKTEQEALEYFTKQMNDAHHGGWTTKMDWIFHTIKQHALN
PI3-Kα, sequence (P26450 whole entry partner, the tested form may be a part): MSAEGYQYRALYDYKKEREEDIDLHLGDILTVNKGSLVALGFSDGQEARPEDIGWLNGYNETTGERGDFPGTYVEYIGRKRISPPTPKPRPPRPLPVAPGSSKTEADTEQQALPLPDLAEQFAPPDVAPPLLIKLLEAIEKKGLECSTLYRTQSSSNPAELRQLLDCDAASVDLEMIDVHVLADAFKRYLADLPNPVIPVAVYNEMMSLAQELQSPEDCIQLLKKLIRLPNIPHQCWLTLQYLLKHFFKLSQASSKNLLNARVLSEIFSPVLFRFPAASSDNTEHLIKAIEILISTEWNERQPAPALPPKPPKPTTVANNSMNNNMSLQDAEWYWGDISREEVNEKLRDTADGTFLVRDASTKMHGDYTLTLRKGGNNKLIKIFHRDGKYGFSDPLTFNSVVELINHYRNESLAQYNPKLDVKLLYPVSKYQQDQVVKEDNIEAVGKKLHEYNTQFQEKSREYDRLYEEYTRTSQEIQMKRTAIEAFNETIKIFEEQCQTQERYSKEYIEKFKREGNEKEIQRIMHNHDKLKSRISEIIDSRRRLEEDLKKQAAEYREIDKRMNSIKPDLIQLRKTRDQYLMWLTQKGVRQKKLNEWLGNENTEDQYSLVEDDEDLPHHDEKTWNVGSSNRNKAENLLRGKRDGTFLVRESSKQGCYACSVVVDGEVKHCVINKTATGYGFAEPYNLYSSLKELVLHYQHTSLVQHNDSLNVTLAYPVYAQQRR

Compound | Ki (PI3-Kα; read-out: PI3Ka Ki) | Ki (mTOR [1]) | PI3Ka Ki (PI3-Kα) | Ki (mTOR [2]) | IC50 [3]
Cn1c(=O)n(C2CCNCC2)c2c3nc(-c4cnc5ccccc5c4)ccc3ncc21 [Compound 118, 3-methyl-1-piperidin-4-yl-8-quinolin-3-yl-1,3-dihydro-2H-imidazo[4,5-c][1,5]naphthyridin-2-one] | 2.08 nM | 13.2 nM |  |  | 
Cc1ccc(-c2ccc3ncc4c(c3n2)n([C@H](C)CO)c(=O)n4C)cn1 [Compound 231, 1-[(1R)-2-hydroxy-1-methylethyl]-3-methyl-8-(6-methylpyridin-3-yl)-1,3-dihydro-2H-imidazo[4,5-c][1,5]naphthyridin-2-one] |  |  | 13.4 nM | 56.2 nM | 0.269 µM
COc1ccc(-c2ccc3ncc4c(c3n2)n([C@H](C)CO)c(=O)n4C)cn1 [Compound 233, 1-[(1R)-2-hydroxy-1-methylethyl]-8-(6-methoxypyridin-3-yl)-3-methyl-1,3-dihydro-2H-imidazo[4,5-c][1,5]naphthyridin-2-one] |  |  | 8.94 nM | 23.8 nM | 0.237 µM
C[C@H](CO)n1c(=O)n(C)c2cnc3ccc(-c4cnc(N)nc4)nc3c21 [Compound 235, 8-(2-aminopyrimidin-5-yl)-1-[(1R)-2-hydroxy-1-methylethyl]-3-methyl-1,3-dihydro-2H-imidazo[4,5-c][1,5]naphthyridin-2-one] |  |  | 15.5 nM | 6.99 nM | 0.331 µM
C[C@H](CO)n1c(=O)n(C)c2cnc3ccc(-c4cccc5[nH]ccc45)nc3c21 [Compound 237, 1-[(1R)-2-hydroxy-1-methylethyl]-8-(1H-indo1-4-yl)-3-methyl-1,3-dihydro-2H-imidazo[4,5-c][1,5]naphthyridin-2-one] |  |  | 29.6 nM | 6.66 nM | 0.0553 µM
C[C@H](CO)n1c(=O)n(C)c2cnc3ccc(-c4cnc5[nH]ncc5c4)nc3c21 [Compound 238, 1-[(1R)-2-hydroxy-1-methylethyl]-3-methyl-8-(1H-pyrazolo[3,4-b]pyridin-5-yl)-1,3-dihydro-2H-imidazo[4,5-c][1,5]naphthyridin-2-one] |  |  | 0.438 nM | 4.44 nM | 0.0838 µM
C[C@@H](CO)n1c(=O)n(C)c2cnc3ccc(-c4cnn(C)c4)nc3c21 [Compound 239, 1-[(1S)-2-hydroxy-1-methylethyl]-3-methyl-8-(1-methyl-1H-pyrazol-4-yl)-1,3-dihydro-2H-imidazo[4,5-c][1,5]naphthyridin-2-one] |  |  | 102 nM | 311 nM | 5.04 µM
COc1ccc(-c2ccc3ncc4c(c3n2)n([C@@H](C)CO)c(=O)n4C)cn1 [Compound 241, 1-[(1S)-2-hydroxy-1-methylethyl]-8-(6-methoxypyridin-3-yl)-3-methyl-1,3-dihydro-2H-imidazo[4,5-c][1,5]naphthyridin-2-one] |  |  | 4.08 nM | 28.7 nM | 0.266 µM
CC(=O)N1CCC(n2c(=O)n(C)c3cnc4ccc(-c5ccc(N)nc5)nc4c32)CC1 [Compound 242, 1-(1-acetylpiperidin-4-yl)-8-(6-aminopyridin-3-yl)-3-methyl-1,3-dihydro-2H-imidazo[4,5-c][1,5]naphthyridin-2-one] |  |  | 0.252 nM | 0.299 nM | 0.00917 µM
CC(=O)N1CCC(n2c(=O)n(C)c3cnc4ccc(-c5ccc(S(C)(=O)=O)cc5)nc4c32)CC1 [Compound 246, 1-(1-acetylpiperidin-4-yl)-3-methyl-8-[4-(methylsulfonyl)phenyl]-1,3-dihydro-2H-imidazo[4,5-c][1,5]naphthyridin-2-one] |  |  | 24.2 nM | 35.3 nM | 2.58 µM
CC(=O)N1CCC(n2c(=O)n(C)c3cnc4ccc(-c5ccnc6[nH]ncc56)nc4c32)CC1 [Compound 251, 1-(1-acetylpiperidin-4-yl)-3-methyl-8-(1H-pyrazolo[3,4-b]pyridin-4-yl)-1,3-dihydro-2H-imidazo[4,5-c][1,5]naphthyridin-2-one] |  |  | 0.811 nM | 4.63 nM | 0.14 µM
C[C@H](O)C(=O)N1CCC(n2c(=O)n(C)c3cnc4ccc(-c5ccnc6[nH]ncc56)nc4c32)CC1 [Compound 253, 1-{1-[(2S)-2-hydroxypropanoyl]piperidin-4-yl}-3-methyl-8-(1H-pyrazolo[3,4-b]pyridin-4-yl)-1,3-dihydro-2H-imidazo[4,5-c][1,5]naphthyridin-2-one] |  |  | 1.04 nM | 1.69 nM | 0.218 µM
Cn1c(=O)n(C2CCN(C(=O)CO)CC2)c2c3nc(-c4cccc5[nH]ncc45)ccc3ncc21 [Compound 256, 1-(1-glycoloylpiperidin-4-yl)-8-(1H-indazol-4-yl)-3-methyl-1,3-dihydro-2H-imidazo[4,5-c][1,5]naphthyridin-2-one] |  |  | 0.575 nM | 1.97 nM | 0.0604 µM
C[C@@H](O)C(=O)N1CCC(n2c(=O)n(C)c3cnc4ccc(-c5cnc6[nH]ncc6c5)nc4c32)CC1 [Compound 258, 1-{1-[(2R)-2-hydroxypropanoyl]piperidin-4-yl}-3-methyl-8-(1H-pyrazolo[3,4-b]pyridin-5-yl)-1,3-dihydro-2H-imidazo[4,5-c][1,5]naphthyridin-2-one] |  |  | 0.11 nM | 0.241 nM | 0.0294 µM
COCC(=O)N1CCC(n2c(=O)n(C)c3cnc4ccc(-c5cnc6[nH]ncc6c5)nc4c32)CC1 [Compound 260, 1-[1-(methoxyacetyl)piperidin-4-yl]-3-methyl-8-(1H-pyrazolo[3,4-b]pyridin-5-yl)-1,3-dihydro-2H-imidazo[4,5-c][1,5]naphthyridin-2-one] |  |  | 0.167 nM | 0.323 nM | 0.0153 µM
Cn1c(=O)n(C2CCN(C(=O)C(C)(C)O)CC2)c2c3nc(-c4cnc5[nH]ncc5c4)ccc3ncc21 [Compound 261, 1-[1-(2-hydroxy-2-methylpropanoyl)piperidin-4-yl]-3-methyl-8-(1H-pyrazolo[3,4-b]pyridin-5-yl)-1,3-dihydro-2H-imidazo[4,5-c][1,5]naphthyridin-2-one] |  |  | 0.114 nM | 0.658 nM | 0.00991 µM
Cn1c(=O)n(C2CCN(C(=O)CO)CC2)c2c3nc(-c4cnc5[nH]ncc5c4)ccc3ncc21 [Compound 262, 1-(1-glycoloylpiperidin-4-yl)-3-methyl-8-(1H-pyrazolo[3,4-b]pyridin-5-yl)-1,3-dihydro-2H-imidazo[4,5-c][1,5]naphthyridin-2-one] |  |  | 0.32 nM | 4.06 nM | 0.0594 µM
CN1CCC(n2c(=O)n(C)c3cnc4ccc(-c5cnc6[nH]ncc6c5)nc4c32)CC1 [Compound 263, 3-methyl-1-(1-methylpiperidin-4-yl)-8-(1H-pyrazolo[3,4-b]pyridin-5-yl)-1,3-dihydro-2H-imidazo[4,5-c][1,5]naphthyridin-2-one] |  |  | 0.282 nM | 5.67 nM | 0.0218 µM
CCNC(=O)Nc1ccc(-c2ccc3ncc4c(c3n2)n(C2CCN(C(=O)OC(C)(C)C)CC2)c(=O)n4C)cc1 [Compound 265, tert-butyl 4-(8-{4-[(ethylcarbamoyl)amino]phenyl}-3-methyl-2-oxo-2,3-dihydro-1H-imidazo[4,5-c][1,5]naphthyridin-1-yl)piperidine-1-carboxylate] |  |  | 5.02 nM | 14.4 nM | 0.0399 µM
COc1ccc(-c2ccc3ncc4c(c3n2)n(CCN2CCNCC2)c(=O)n4C)cn1 [Compound 266, 8-(6-methoxypyridin-3-yl)-3-methyl-1-(2-piperazin-1-ylethyl)-1,3-dihydro-2H-imidazo[4,5-c][1,5]naphthyridin-2-one] |  |  | 7.8 nM | 273 nM | 0.344 µM
Cn1c(=O)n([C@H]2CC[C@H](O)CC2)c2c3nc(-c4ccc5[nH]ncc5c4)ccc3ncc21 [Compound 267, 1-(trans-4-hydroxycyclohexyl)-8-(1H-indazol-5-yl)-3-methyl-1,3-dihydro-2H-imidazo[4,5-c][1,5]naphthyridin-2-one] |  |  | 0.145 nM | 0.359 nM | 0.0205 µM
COCCn1c(=O)n(C)c2cnc3ccc(-c4ccc(OC)nc4)nc3c21 [Compound 270, 1-(2-methoxyethyl)-8-(6-methoxypyridin-3-yl)-3-methyl-1,3-dihydro-2H-imidazo[4,5-c][1,5]naphthyridin-2-one] |  |  | 13.5 nM | 7.13 nM | 0.207 µM
COc1ccc(-c2ccc3ncc4c(c3n2)n(C2CCN(C(C)=O)CC2)c(=O)n4C)cc1 [Compound 274, 1-(1-acetylpiperidin-4-yl)-8-(4-methoxyphenyl)-3-methyl-1,3-dihydro-2H-imidazo[4,5-c][1,5]naphthyridin-2-one] |  |  | 7.71 nM | 14.6 nM | 0.0113 µM
COc1cccc(-c2ccc3ncc4c(c3n2)n(C2CCN(C(=O)[C@H](C)O)CC2)c(=O)n4C)c1 [Compound 275, 1-{1-[(2S)-2-hydroxypropanoyl]piperidin-4-yl}-8-(3-methoxyphenyl)-3-methyl-1,3-dihydro-2H-imidazo[4,5-c][1,5]naphthyridin-2-one] |  |  | 2.01 nM | 8.51 nM | 0.0344 µM
COc1cccc(-c2ccc3ncc4c(c3n2)n(C2CCN(C(=O)CO)CC2)c(=O)n4C)c1 [Compound 276, 1-(1-glycoloylpiperidin-4-yl)-8-(3-methoxyphenyl)-3-methyl-1,3-dihydro-2H-imidazo[4,5-c][1,5]naphthyridin-2-one] |  |  | 2.22 nM | 10.2 nM | 0.0304 µM
COc1cccc(-c2ccc3ncc4c(c3n2)n(C2CCN(C(C)=O)CC2)c(=O)n4C)c1 [Compound 277, 1-(1-acetylpiperidin-4-yl)-8-(3-methoxyphenyl)-3-methyl-1,3-dihydro-2H-imidazo[4,5-c][1,5]naphthyridin-2-one] |  |  | 3.04 nM | 10.3 nM | 0.0577 µM
